Measured values taken from patent US12544395B2, “Combination compositions comprising a beta-lactamase inhibitor and uses thereof” (priority 2018, dated 2026).
≈ marks a conversion by molar mass, not a printed value.

Experiments:
E. coli 1924 = assay: Broth microdilution MIC (strain enzymes: TEM-12); assay type: cell-based; conditions: Escherichia coli, 1924; alone; read-out: MIC of ceftibuten (CTB)
E. coli 2150 = assay: Broth microdilution MIC (strain enzymes: SHV-3, TEM-1); assay type: cell-based; conditions: Escherichia coli, 2150; alone; read-out: MIC of ceftibuten (CTB)
E. coli BAS 1 = assay: Broth microdilution MIC (strain enzymes: none detected); assay type: cell-based; conditions: Escherichia coli, BAS1; alone; read-out: MIC of ceftibuten (CTB)
E. coli ESBL 2 = assay: Broth microdilution MIC (strain enzymes: TEM-1); assay type: cell-based; conditions: Escherichia coli, ESBL2; alone; read-out: MIC of ceftibuten (CTB)
E. coli ESBL 4 = assay: Broth microdilution MIC (strain enzymes: CTX-M15, TEM-1); assay type: cell-based; conditions: Escherichia coli, ESBL4; alone; read-out: MIC of ceftibuten (CTB)
E. coli SI-M004 = assay: Broth microdilution MIC (strain enzymes: SHV-2, GES-12); assay type: cell-based; conditions: Escherichia coli, SIM004; alone; read-out: MIC of ceftibuten (CTB)
E. coli SI-NO36 = assay: Broth microdilution MIC (strain enzymes: SHV-11, TEM-1); assay type: cell-based; conditions: Escherichia coli, SINO36; alone; read-out: MIC of ceftibuten (CTB)
E. coli SI-PBLII = assay: Broth microdilution MIC (strain enzymes: CTX-M2, TEM-1); assay type: cell-based; conditions: Escherichia coli; alone; read-out: MIC of ceftibuten (CTB)
E. coli SI-V502 = assay: Broth microdilution MIC (strain enzymes: TEM-29, CTX-M15); assay type: cell-based; conditions: Escherichia coli, SIV502; alone; read-out: MIC of ceftibuten (CTB)
E. coli 25922 = assay: Broth microdilution MIC (strain enzymes: None detected); assay type: cell-based; conditions: Escherichia coli, 25922; alone; read-out: MIC of ceftibuten (CTB)
K. oxytoca 169219 = assay: Broth microdilution MIC (strain enzymes: TEM-1, CTXM-15); assay type: cell-based; conditions: Klebsiella oxytoca, 169219; alone; read-out: MIC of ceftibuten (CTB)
K. oxytoca 496 #2 = assay: Broth microdilution MIC (strain enzymes: SHV-105, TEM-1); assay type: cell-based; conditions: Klebsiella oxytoca; alone; read-out: MIC of ceftibuten (CTB)
K. pneumoniae 153239 = assay: Broth microdilution MIC (strain enzymes: SHV-11, TEM-1); assay type: cell-based; conditions: Klebsiella pneumoniae, 153239; alone; read-out: MIC of ceftibuten (CTB)
K. pneumoniae 319478 = assay: Broth microdilution MIC (strain enzymes: SHV-12, CTX-M3 and TEM-1); assay type: cell-based; conditions: Klebsiella pneumoniae, 319478; alone; read-out: MIC of ceftibuten (CTB)
K. pneumoniae 329633 = assay: Broth microdilution MIC (strain enzymes: SHV-5, TEM-1); assay type: cell-based; conditions: Klebsiella pneumoniae, 329633; alone; read-out: MIC of ceftibuten (CTB)
K. pneumoniae 11/23 LF#2 = assay: microbe, parasite or virus in culture; assay type: cell-based; conditions: Klebsiella pneumoniae, read-out: MIC of ceftibuten (CTB)
K. pneumoniae ESBL 8 #1 = assay: Broth microdilution MIC (strain enzymes: TEM-1, SHV-12); assay type: cell-based; conditions: Klebsiella pneumoniae; alone; read-out: MIC of ceftibuten (CTB)
K. pneumoniae ESBL 8 #2 = assay: Broth microdilution MIC (strain enzymes: SHV-12, TEM-1); assay type: cell-based; conditions: Klebsiella pneumoniae; alone; read-out: MIC of ceftibuten (CTB)
[1] = tested on: E. coli expressing TEM-1+CTX-M-15, CTX-M-15, and KPC-2+SHV-12; assay: Murine ascending UTI model, three strains; assay type: in vivo, mice; conditions: mouse, in vivo
[2] = tested on: three strains of E. coli expressing TEM-1+CTX-M-15, CTX-M-15, and KPC-2+SHV-12; assay: MIC against the UTI test strains; assay type: cell-based; conditions: Escherichia coli; alone; read-out: Ceftibuten MICs

Nc1nc(/C(=C/CC(=O)O)C(=O)N[C@@H]2C(=O)N3C(C(=O)O)=CCS[C@H]23)cs1 [Ceftibuten, ceftibuten, reference compound] was tested, and the MIC (E. coli 1924) was 0.5 µg/mL, the MIC (E. coli 2150) was 0.5 µg/mL and the MIC (E. coli BAS 1) was over 32 µg/mL. The MIC (E. coli ESBL 2) was 8 µg/mL, the MIC (E. coli ESBL 4) was over 32 µg/mL and the MIC (E. coli SI-M004) was 32 µg/mL. It also gave an MIC (E. coli SI-NO36) of 0.5 µg/mL, an MIC (E. coli SI-PBLII) of 0.5 µg/mL and an MIC (E. coli SI-V502) of 0.5 µg/mL. The MIC (E. coli 25922) was 0.25 µg/mL, the MIC (K. oxytoca 169219) was 4 µg/mL and the MIC (K. oxytoca 496 #2) was 8 µg/mL. The MIC (K. pneumoniae 153239) was 0.25 µg/mL, the MIC (K. pneumoniae 319478) was over 32 µg/mL and the MIC (K. pneumoniae 329633) was 16 µg/mL. It also gave an MIC (K. pneumoniae 11/23 LF#2) of 2 µg/mL, an MIC (K. pneumoniae ESBL 8 #1) of 16 µg/mL and an MIC (K. pneumoniae ESBL 8 #2) of 16 µg/mL. The “CFU reductions in the kidneys” value [1] was “minimal CFU reductions” and the MIC [2] was 8 to 64 µg/mL (≈ 19.5 to 156 µM).
